Source: patent publication US9133115B2 (ACHILLION PHARMACEUTICALS, INC., priority 2008, dated 2015)

system: HCV replicon; assay: HCV replicon replication assay (NPT ELISA) in Huh-7 replicon-containing cells; format: cell-based; details: Hepatitis C virus, 72 h; HCV replicon in Huh-7 cells, three days incubation; read-out: EC50
Summary of the method: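 Replication was scored by capture ELISA of neomycin phosphotransferase, whose level tracks replicon replication, after graded compound treatment. The cells were Huh-7 harbouring an HCV-IRES/neo/EMCV-IRES/NS3–NS5B/3′-NTR replicon, plated at 6000-7500 cells/well and dosed 24 h later at 60-70% confluence; interferon alpha was the positive control.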

SMILES	EC50 [nM]
C=C[C@@H]1C[C@]1(NC(=O)[C@@H]1C[C@@H](Oc2cc(-c3ccccc3)nc3cc(OC)ccc23)CN1C(=O)[C@@H](CC(=O)N1CCCCC1)C(C)(C)C)C(=O)N(C1CC1)S(N)(=O)=O [Compound 107, (2S,4R)-1-((S)-2-tert-butyl-4-oxo-4-(piperidin-1-yl)butanoyl)-N-((1R,2S)-1-(N-cyclopropyl-sulfamoyl-carbamoyl)-2-vinylcyclopropyl)-4-(7-methoxy-2-phenylquinolin-4-yloxy)pyrrolidine-2-carboxamide]	< 1000
C=C[C@@H]1C[C@]1(NC(=O)[C@@H]1C[C@@H](Oc2cc(-c3ccccc3)nc3cc(OC)ccc23)CN1C(=O)[C@@H](CC(=O)N1CCCC(F)(F)C1)C(C)(C)C)C(=O)NS(=O)(=O)C1CC1 [Compound 108, (2S,4R)-1-((S)-2-tert-butyl-4-(3,3-difluoropiperidin-1-yl)-4-oxobutanoyl)-N-((1R,2S)-1-(cyclo-propylsulfonyl-carbamoyl)-2-vinylcyclopropyl)-4-(7-methoxy-2-phenylquinolin-4-yloxy)pyrrolidine-2-carboxamide]	< 1000
CC[C@H](NC(=O)[C@@H]1C[C@@H](Oc2cc(-c3ccccc3)nc3cc(OC)ccc23)CN1C(=O)[C@@H](CC(=O)N1CCCCC1)C(C)(C)C)C(=O)NS(=O)(=O)C1CC1 [Compound 109, (2S,4R)-1-((S)-2-tert-butyl-4-oxo-4-(piperidin-1-yl)butanoyl)-N-((S)-1-(cyclopropane-sulfonamido)-1-oxobutan-2-yl)-4-(7-methoxy-2-phenylquinolin-4-yloxy)pyrrolidine-2-carboxamide]	1000 to 10000
COc1ccc2c(O[C@@H]3C[C@@H](C(=O)N[C@H](C(=O)NS(=O)(=O)C4CC4)C(C)C)N(C(=O)[C@@H](CC(=O)N4CCCCC4)C(C)(C)C)C3)cc(-c3ccccc3)nc2c1 [Compound 110, (2S,4R)-1-((S)-2-tert-butyl-4-oxo-4-(piperidin-1-yl)butanoyl)-N-((S)-1-(cyclopropane-sulfonamido)-3-methyl-1-oxobutan-2-yl)-4-(7-methoxy-2-phenylquinolin-4-yloxy)pyrrolidine-2-carboxamide]	1000 to 10000
COc1ccc2c(O[C@@H]3C[C@@H](C(=O)NC(C)(C)C(=O)NS(=O)(=O)C4CC4)N(C(=O)[C@@H](CC(=O)N4CCCCC4)C(C)(C)C)C3)cc(-c3ccccc3)nc2c1 [Compound 111, (2S,4R)-1-((S)-2-tert-butyl-4-oxo-4-(piperidin-1-yl)butanoyl)-N-(1-(cyclopropane-sulfonamido)-2-methyl-1-oxopropan-2-yl)-4-(7-methoxy-2-phenylquinolin-4-yloxy)pyrrolidine-2-carboxamide]	1000 to 10000
COc1ccc2c(O[C@@H]3C[C@@H](C(=O)N[C@H](C(=O)NS(=O)(=O)C4CC4)c4ccccc4)N(C(=O)[C@@H](CC(=O)N4CCCCC4)C(C)(C)C)C3)cc(-c3ccccc3)nc2c1 [Compound 112, (2S,4R)-1-((S)-2-tert-butyl-4-oxo-4-(piperidin-1-yl)butanoyl)-N-((S)-2-(cyclopropane-sulfonamido)-2-oxo-1-phenylethyl)-4-(7-methoxy-2-phenylquinolin-4-yloxy)pyrrolidine-2-carboxamide]	1000 to 10000
CCC[C@H](NC(=O)[C@@H]1C[C@@H](Oc2cc(-c3ccccc3)nc3cc(OC)ccc23)CN1C(=O)[C@@H](CC(=O)N1CCCCC1)C(C)(C)C)C(=O)NS(=O)(=O)C1CC1 [Compound 113, (2S,4R)-1-((S)-2-tert-butyl-4-oxo-4-(piperidin-1-yl)butanoyl)-N-((S)-1-(cyclopropanesulfon-amido)-1-oxopentan-2-yl)-4-(7-methoxy-2-phenylquinolin-4-yloxy)pyrrolidine-2-carboxamide]	1000 to 10000
COc1ccc2c(O[C@@H]3C[C@@H](C(=O)N[C@@H](C)C(=O)NS(=O)(=O)C4CC4)N(C(=O)[C@@H](CC(=O)N4CCCCC4)C(C)(C)C)C3)cc(-c3ccccc3)nc2c1 [Compound 114, (2S,4R)-1-((S)-2-tert-butyl-4-oxo-4-(piperidin-1-yl)butanoyl)-N-((S)-1-(cyclopropanesulfon-amido)-1-oxopropan-2-yl)-4-(7-methoxy-2-phenylquinolin-4-yloxy)pyrrolidine-2-carboxamide]	1000 to 10000
COc1ccc2c(O[C@@H]3C[C@@H](C(=O)N[C@H](C(=O)NS(=O)(=O)C4CC4)C(C)(C)C)N(C(=O)[C@@H](CC(=O)N4CCCCC4)C(C)(C)C)C3)cc(-c3ccccc3)nc2c1 [Compound 115, (2S,4R)-1-((S)-2-tert-butyl-4-oxo-4-(piperidin-1-yl)butanoyl)-N-((S)-1-(cyclopropanesulfon-amido)-3,3-dimethyl-1-oxobutan-2-yl)-4-(7-methoxy-2-phenylquinolin-4-yloxy)pyrrolidine-2-carboxamide]	1000 to 10000
CC[C@@H](NC(=O)[C@@H]1C[C@@H](Oc2cc(-c3ccccc3)nc3cc(OC)ccc23)CN1C(=O)[C@@H](CC(=O)N1CCCCC1)C(C)(C)C)C(=O)NS(=O)(=O)C1CC1 [Compound 116, (2S,4R)-1-((S)-2-tert-butyl-4-oxo-4-(piperidin-1-yl)butanoyl)-N-((R)-1-(cyclopropanesulfon-amido)-1-oxobutan-2-yl)-4-(7-methoxy-2-phenylquinolin-4-yloxy)pyrrolidine-2-carboxamide]	1000 to 10000
CCC[C@@H](NC(=O)[C@@H]1C[C@@H](Oc2cc(-c3ccccc3)nc3cc(OC)ccc23)CN1C(=O)[C@@H](CC(=O)N1CCCCC1)C(C)(C)C)C(=O)NS(=O)(=O)C1CC1 [Compound 117, (2S,4R)-1-((S)-2-tert-butyl-4-oxo-4-(piperidin-1-yl)butanoyl)-N-((R)-1-(cyclopropanesulfon-amido)-1-oxopentan-2-yl)-4-(7-methoxy-2-phenylquinolin-4-yloxy)pyrrolidine-2-carboxamide]	1000 to 10000
COc1ccc2c(O[C@@H]3C[C@@H](C(=O)N[C@@H](C(=O)NS(=O)(=O)C4CC4)C(C)C)N(C(=O)[C@@H](CC(=O)N4CCCCC4)C(C)(C)C)C3)cc(-c3ccccc3)nc2c1 [Compound 118, (2S,4R)-1-((S)-2-tert-butyl-4-oxo-4-(piperidin-1-yl)butanoyl)-N-((R)-1-(cyclopropanesulfon-amido)-3-methyl-1-oxobutan-2-yl)-4-(7-methoxy-2-phenylquinolin-4-yloxy)pyrrolidine-2-carboxamide]	1000 to 10000
C=C[C@@H]1C[C@]1(NC(=O)[C@@H]1C[C@@H](Oc2cc(-c3ccccc3)nc3cc(OC)ccc23)CN1C(=O)[C@@H](CC(=O)N1CCC(F)(F)CC1)C(C)(C)C)C(=O)NS(=O)(=O)C1CC1 [Compound 119, (2S,4R)-1-((S)-2-tert-butyl-4-(4,4-difluoropiperidin-1-yl)-4-oxobutanoyl)-N-((1R,2S)-1-(cyclopropylsulfonyl-carbamoyl)-2-vinylcyclopropyl)-4-(7-methoxy-2-phenylquinolin-4-yloxy)pyrrolidine-2-carboxamide]	< 1000
C=C[C@@H]1C[C@]1(NC(=O)[C@@H]1C[C@@H](Oc2cc(-c3ccccc3)nc3cc(OC)ccc23)CN1C(=O)[C@@H](CC(=O)N1CCCCC1)C(C)(C)C)C(=O)NS(=O)(=O)CC [Compound 120, (2S,4R)-1-((S)-2-tert-butyl-4-oxo-4-(piperidin-1-yl)butanoyl)-N-((1R,2S)-1-(ethyl-sulfonylcarbamoyl)-2-vinylcyclopropyl)-4-(7-methoxy-2-phenylquinolin-4-yloxy)pyrrolidine-2-carboxamide]	< 1000
C=C[C@@H]1C[C@]1(NC(=O)[C@@H]1C[C@@H](Oc2cc(-c3ccccc3)nc3cc(OC)ccc23)CN1C(=O)[C@@H](CC(=O)N1CCCCC1)C1CC1)C(=O)NS(=O)(=O)C1CC1 [Compound 121, (2S,4R)-1-((S)-2-cyclopropyl-4-oxo-4-(piperidin-1-yl)butanoyl)-N-((1R,2S)-1-(cyclopropylsulfonyl-carbamoyl)-2-vinylcyclopropyl)-4-(7-methoxy-2-phenylquinolin-4-yloxy)pyrrolidine-2-carboxamide]	< 1000
C=C[C@@H]1C[C@]1(NC(=O)[C@@H]1C[C@@H](Oc2nc(-c3ccccn3)nc3ccsc23)CN1C(=O)[C@@H](CC(=O)N1CCCCC1)C(C)(C)C)C(=O)NS(=O)(=O)C1CC1 [Compound 122, (2S,4R)-1-((S)-2-tert-butyl-4-oxo-4-(piperidin-1-yl)butanoyl)-N-((1R,2S)-1-(cyclopropylsulfonyl-carbamoyl)-2-vinylcyclopropyl)-4-(2-(pyridin-2-yl)thieno[3,2-d]pyrimidin-4-yloxy)pyrrolidine-2-carboxamide]	1000 to 10000
C=C[C@@H]1C[C@]1(NC(=O)[C@@H]1C[C@@H](OC(=O)N2c3ccccc3Sc3ccccc32)CN1C(=O)[C@@H](CC(=O)N1CCCCC1)C(C)(C)C)C(=O)NS(=O)(=O)C1CC1 [Compound 123, (3R,5S)-1-((S)-2-tert-butyl-4-oxo-4-(piperidin-1-yl)butanoyl)-5-((1R,2S)-1-(cyclopropylsulfonyl-carbamoyl)-2-vinyl-cyclopropylcarbamo-yl)pyrrolidin-3-yl 10H-phenothiazine-10-carboxylate]	1000 to 10000
C=C[C@@H]1C[C@]1(NC(=O)[C@@H]1C[C@@H](Oc2cc(-c3ccccc3)nc3cc(OC)ccc23)CN1C(=O)[C@@H](CC(=O)N1CCCCC1)CC1CC1)C(=O)NS(=O)(=O)C1CC1 [Compound 124, (2S,4R)-1-((R)-2-(cyclopropylmethyl)-4-oxo-4-(piperidin-1-yl)butanoyl)-N-((1R,2S)-1-(cyclopropylsulfonyl-carbamoyl)-2-vinylcyclopropyl)-4-(7-methoxy-2-phenylquinolin-4-yloxy)pyrrolidine-2-carboxamide]	< 1000
